# Laboratory results reported in patent US8383595B2, “Peptide derivative and composition for promoting tear secretion comprising the same” (Kinki University, priority 2008, dated 2013).
# Where no end group is shown, it is not given here.
# Experiments:
# rat lacrimal secretion [1] = assay: Rat lacrimal fluid secretion in vivo (Schirmer test paper); settings: male Wistar rat; for lacrimal secretion promoting action compared with Ser-Leu-Ile-Gly-Arg-Leu-NH2 and Ile-Gly-Arg-Leu-NH2: six minutes after administration (FIGS. 2, 4); for lacrimal secretion promoting action: peptide 5 μmol/kg i.v. one minute after amastatin 2.5 μmol/kg i.v., six minutes after administration (FIGS. 1, 3)
# Protocol: An amount of lacrimal secretion which is an indication for determining an effect of promoting lacrimal secretion can be measured according to a known method such as by Iga et al. (Iga, Y. et al., Jpn. J. Pharmacol., 78, 373-80, 1998) using a rat. In particular, a rat is anesthetized with pentobarbital (50 mg/kg, intra-abdominal administration), and a paper with 2 mm width for testing the human lacrimal secretion function, the Schirmer test paper (Showa Yakuhin Kako Co., Ltd.) is inserted into a lower eyelid of the rat. After a fixed period of time has passed, the test paper is removed, and a length of the wetted portion of the test paper is measured using a caliper square. If a statistically significant increase of lacrimal secretion is observed when a test substance is administered, it can be said that the substance has the lacrimal secretion promoting action.
# Male Wistar rat at 6 weeks of age was used in experiments. Each animal was housed for one week under the environment of room temperature of 23±2° C., a humidity of 50±5% and a 12 hours light/dark cycle (light: 07:00-19:00) and, thereafter, it was subjected to experiments. During the housing and experiment period, the animal was fed a solid chaw and water ad lib.
# An amount of rat lacrimal fluid secretion was measured according to the method of Iga et al. (Iga, Y. et al., Jpn. J. Pharmacol., 78, 373-80, 1998). That is, the rat was anesthetized with pentobarbital (50 mg/kg, intraabdominal administration), and a paper with 2 mm width for testing human lacrimal secretion function, the Schirmer test paper (Showa Yakuhin Kako Co., Ltd.) was inserted into a lower eyelid of the rat. After the period of time fixed has passed, the test paper was removed, and a length of a wetted portion of the test paper was measured using a caliper square to define an indicator of lacrimal secretion. An amount of lacrimal fluid was measured at 1, 2, 4 and 6 minutes after administration of the peptides.
# In addition, the results are shown in the mean (mm)±standard error, and the test of significance was performed according to a Tukey's multiple comparison test.
# A physiological salt solution of amastatin (2.5 μmol/kg), which is an aminopeptidase inhibitor, was intravenously administrated to the rat, and after one minute, a physiological salt solution of various peptide derivatives (5 μmol/kg) was intravenously administrated. Measurements were initiated immediately after administration of the peptides.
# As a control, an amount of lacrimal secretion was also measured in the case where the physiological salt solution without the peptide (solvent) was intravenously, administrated.
# rat lacrimal secretion [2] = settings: earlier finding, no details given; cited from earlier work
# PAR-2 = settings: as disclosed in JP 2001-181208A; cited from earlier work
# [3] = peptide 5 μmol/kg i.v. after amastatin 2.5 μmol/kg i.v.
Molecule,lacrimal secretion promoting action (rat lacrimal secretion [1]),also measured
"CC(C)C[C@H](NC(=O)[C@H](CCCNC(=N)N)NC(=O)c1ccco1)C(N)=O [2-furoyl-(L)Arg-(L)Leu-NH2, N-(2-furoyl)-L-Arg-L-Leu-NH2]",potent lacrimal secretion promoting action,"duration of the lacrimal secretion promoting action compared with Ser-Leu-Ile-Gly-Arg-Leu-NH2 and Ile-Gly-Arg-Leu-NH2 (rat lacrimal secretion [1]; peptide 5 μmol/kg i.v. after amastatin 2.5 μmol/kg i.v., measured at 1, 2, 4 and 6 minutes (FIG. 5)): maintained over a longer period of time; lacrimal secretion promoting action compared with Ser-Leu-Ile-Gly-Arg-Leu-NH2 and Ile-Gly-Arg-Leu-NH2 (rat lacrimal secretion [1]; [3]): almost the same as those of Ser-Leu-Ile-Gly-Arg-Leu-NH2 and Ile-Gly-Arg-Leu-NH2"
L-Arg-L-Leu-NH2 [(L)Arg-(L)Leu-NH2],promote lacrimal secretion,lacrimal secretion promoting action compared with Ser-Leu-Ile-Gly-Arg-Leu-NH2 and Ile-Gly-Arg-Leu-NH2 (rat lacrimal secretion [1]; [3]): lower than those of Ser-Leu-Ile-Gly-Arg-Leu-NH2 and Ile-Gly-Arg-Leu-NH2
cyclo-L-Arg-L-Leu-NH2 [cyclo-Arg-Leu],did not entirely influence on lacrimal secretion,
D-Arg-L-Leu-NH2 [(D) Arg-(L)Leu-NH2],did not entirely influence on lacrimal secretion,
D-Arg-D-Leu-NH2 [(D)Arg-(D)Leu-NH2],did not entirely influence on lacrimal secretion,
Ser-Leu-Ile-Gly-Arg-Leu-NH2 (SLIGRL-NH2),,lacrimal secretion promoting action (previously demonstrated) (rat lacrimal secretion [2]): previously demonstrated to have the lacrimal secretion promoting action; activation of PAR-2 (PAR-2): activates PAR-2
L-Arg-D-Leu-NH2 [(L)Arg-(D)Leu-NH2],did not entirely influence on lacrimal secretion,
Ile-Gly-Arg-Leu-NH2 (IGRL-NH2) [Ile-Gly-Arg-Leu-NH7],,lacrimal secretion promoting action (previously demonstrated) (rat lacrimal secretion [2]): previously demonstrated to have the lacrimal secretion promoting action
